Here are results for 22 compounds from ChEMBL document CHEMBL3259605, “Improving the Pharmacokinetics of GPR40/FFA1 Full Agonists” (ACS Med Chem Lett, 2014).

The target in data set [1] is T1, Free fatty acid receptor 1 (Homo sapiens, UniProt O14842). Nature of the data set: Agonist activity at GPR40 (unknown origin) expressed in CHO cells assessed as luminescence for 20 seconds interval by aequorin assay in presence of 0.01% human serum albumin. Format: cell-based.
Data set [2] addresses T1, Free fatty acid receptor 1. As to the kind of experiment: Agonist activity at GPR40 (unknown origin) expressed in CHO cells assessed as luminescence for 20 seconds interval by aequorin assay in presence of 0.01% human serum albumin relative to AM-1638. Format: cell-based.
Data set [3] is described as follows: Intrinsic clearance in human liver microsomes at 1 uM after 30 mins. The data set is classed as ADME. As to conditions: read-out: CLH. In general terms: Microsomes from liver hold many membrane-bound enzymes, among them those of drug oxidation.
Data set [4] in a line: Intrinsic clearance in rat liver microsomes at 1 uM after 30 mins. As to conditions: read-out: CLH. Format: ADME.
Data set [5] can be described thus: Clearance in rat at 0.5 mg/kg, iv. The data set is classed as ADME, organism-based. More on the design: dose 0.5 mg/kg, route intravenous. The note with it: in vivo.
Data set [6] is described as follows: Half life in rat at 0.5 mg/kg, iv. Format: ADME, organism-based. Details: dose 0.5 mg/kg, route intravenous. The note with it: in vivo.
Data set [7] can be described thus: Oral bioavailability in rat at 2 mg/kg. Format: ADME, organism-based. As to conditions: in vivo.
The subject of data set [8] is Mus musculus. Nature of the data set: Antidiabetic activity in diet-induced obesity BDF1 mouse model assessed as reduction of blood glucose level at 30 mg/kg, po up to 120 mins by oral glucose tolerance test. Format: functional, organism-based. Details: dose 30 mg/kg.
Data set [9] concerns Mus musculus. As to the kind of experiment: Antidiabetic activity in po dosed high fat fed C57/Bl6 mouse streptozotocin-induced type 2 diabetic model assessed as reduction of blood glucose level up to 120 mins by oral glucose tolerance test. Format: functional, organism-based.
The test system of data set [10] is Mus musculus. Nature of the data set: Antidiabetic activity in high fat fed C57/Bl6 mouse streptozotocin-induced type 2 diabetic model assessed as reduction of blood glucose level at 30 mg/kg, po up to 120 mins by oral glucose tolerance test. Format: functional, organism-based. More on the design: dose 30 mg/kg.
For data set [11], the system named is Mus musculus. As to the kind of experiment: Induction of GLP-1 release in po dosed high fat fed C57/Bl6 mouse streptozotocin-induced type 2 diabetic model. Format: functional, organism-based.
For data set [12], the target named is T1, Free fatty acid receptor 1. As to the kind of experiment: Agonist activity at GPR40 (unknown origin) expressed in mouse A9 cells assessed as inositol phosphate accumulation using [myo-3H]inositol after 1 hr by scintillation counting in presence of 0.3% human serum albumin. Format: functional, cell-based.
Data set [13] has as its target T1, Free fatty acid receptor 1. Nature of the data set: Agonist activity at GPR40 (unknown origin) expressed in mouse A9 cells assessed as inositol phosphate accumulation using [myo-3H]inositol after 1 hr by scintillation counting in presence of 0.3% human serum albumin relative to AM-1638. The data set is classed as functional, cell-based.
For data set [14], the system named is Mus musculus. As to the kind of experiment: Antidiabetic activity in diet-induced obesity BDF1 mouse model assessed as reduction of blood glucose level at 0.3 mg/kg, po up to 120 mins by oral glucose tolerance test. The data set is classed as functional, organism-based. More on the design: dose 0.3 mg/kg.
The subject of data set [15] is Mus musculus. Nature of the data set: Antidiabetic activity in diet-induced obesity BDF1 mouse model assessed as reduction of blood glucose level at 3 mg/kg, po up to 120 mins by oral glucose tolerance test. More on the design: dose 3 mg/kg. Format: functional, organism-based.
For data set [16], the system named is Mus musculus. As to the kind of experiment: Antidiabetic activity in diet-induced obesity BDF1 mouse model assessed as reduction of blood glucose level at 3 to 10 mg/kg, po up to 120 mins by oral glucose tolerance test. Format: functional, organism-based.
Data set [17] deals with Mus musculus. Nature of the data set: Antidiabetic activity in high fat fed C57/Bl6 mouse streptozotocin-induced type 2 diabetic model assessed as reduction of blood glucose level at 60 mg/kg, po up to 120 mins by oral glucose tolerance test. Format: functional, organism-based. Details: dose 60 mg/kg.

Calls of active or inactive are those of the source.

T1 sequence (O14842 whole entry): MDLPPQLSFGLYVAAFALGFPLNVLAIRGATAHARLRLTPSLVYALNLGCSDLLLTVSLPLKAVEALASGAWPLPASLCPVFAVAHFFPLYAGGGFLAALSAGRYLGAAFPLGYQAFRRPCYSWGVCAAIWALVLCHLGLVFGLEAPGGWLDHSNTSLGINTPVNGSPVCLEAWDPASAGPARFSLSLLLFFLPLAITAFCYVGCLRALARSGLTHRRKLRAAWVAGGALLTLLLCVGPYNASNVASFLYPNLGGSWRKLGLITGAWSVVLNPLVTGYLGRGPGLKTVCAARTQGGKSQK

By EC50 is commonly meant the midpoint of the concentration-response curve. As a reminder, the Emax is the greatest response seen or fitted, relative to the assay's reference. For the compound `COc1ccc(F)c(-c2ccc(COc3cccc([C@@H](CC(=O)O)C4CC4)c3)cc2[C@@H](OC)C(C)(C)C)c1`, in [1], the EC50 was determined as 1.41 µM. In addition, the Emax in [2] worked out at 98%.
Usually clearance stands for the volume of plasma or blood freed of the substance per unit of time. Low values mean inefficient removal, high ones efficient removal. A word on the half-life: it is the time needed for the level to fall by half in the phase considered. Low readings indicate rapid decline, high ones slow decline. For orientation: bioavailability means dose-corrected exposure relative to a reference, in per cent. Take `COc1ccc(F)c(-c2ccc(COc3cccc([C@@H](CC(=O)O)C4CC4)c3)cc2[C@@H]2CCCC2(C)C)c1`: the EC50 in [1] came to 0.076 µM. Moreover, the Emax in data set [2] was found to be 101%. In addition, the microsomal CLint at 1 µM in data set [3] came to 52 µL/min/mg; in data set [4], 219 µL/min/mg. In [5], the clearance is 11.7 mL/min/kg. In data set [6], this compound had a half-life of 2 h. Besides, in [7], the bioavailability was determined as 34%.
Turning to `COc1cc(-c2ccc(COc3cccc([C@@H](CC(=O)O)C4CC4)c3F)cc2[C@@H]2CCCC2(C)C)c(F)cn1`, the outcome in data set [8] and in data set [10] was Active. Besides, the EC50 in data set [1] was 0.093 µM. Further, the Emax in data set [2] was 102%. For the same compound, the microsomal CLint at 1 µM in [3] came to 15 µL/min/mg; in data set [4], 52 µL/min/mg. This compound also showed a clearance in data set [5] of 2.83 mL/min/kg. In [6], this compound gave a half-life of 4.6 h. The compound also had a bioavailability in data set [7] of 98%. The Activity entry in data set [9] and in [11] was “Dose-dependent effect” throughout.
As for `COc1cc(-c2ccc(COc3cc([C@@H](CC(=O)O)C4CC4)ccn3)cc2[C@H](OC)C(C)(C)C)c(F)cn1`, the figures for the EC50 in [12] and in [1] were 0.0006 µM and 0.162 µM, respectively. Further, the Emax was 100% in [13] and 94% in [2]. For the same compound, the outcome in data set [14], in [15] and in [16] was Active. Moreover, the clearance in [5] was 1.02 mL/min/kg. The compound also showed a half-life in data set [6] of 8.1 h. In data set [7], this compound displayed a bioavailability of 54%.
For `COc1cc(-c2ccc(COc3cccc([C@@H](CC(=O)O)C4CC4)c3)cc2[C@@H]2CCCC2(C)C)c(F)cn1`, the EC50 in [1] was 0.068 µM. Further, in data set [2], the maximal response (Emax) is 95%. The microsomal CLint at 1 µM in data set [3] came out at 21 µL/min/mg; in [4] it was 67 µL/min/mg. In addition, in data set [5], the clearance was 1.67 mL/min/kg. In data set [6], the half-life is 3.5 h. In data set [7], the bioavailability was determined as 34%.
As for `COc1cc(-c2ccc(COc3ccc4c(c3)[C@@](C)(CC(=O)O)CC4)cc2[C@@H]2CCCC2(C)C)c(F)cn1`, the figures for the EC50 in data set [12] and in data set [1] were 0.0034 µM and 0.128 µM, respectively. Besides, the Emax in data set [13] and in data set [2] was 100% in each case. In [5], the clearance was 7.5 mL/min/kg. Also, the half-life in data set [6] was 3.7 h. This compound displayed a bioavailability in data set [7] of 10%.
With `CCC[C@H](CC(=O)O)c1cccc(OCc2ccc(-c3cncc(OC)c3)c(C(C)(C)C)c2)c1`, in data set [1], the EC50 is 30 µM. In addition, the Emax in data set [2] amounted to 72%.
As to `COc1ccc(F)c(-c2ccc(COc3cccc([C@@H](CC(=O)O)C4CC4)c3)cc2C2=CCCC2(C)C)c1`, the result in data set [17] was Active.
On to `COc1ccc(F)c(-c2ccc(COc3cccc([C@@H](CC(=O)O)C4CC4)c3)cc2[C@H](OC)C(C)(C)C)c1`, for which, in [1], the EC50 was found to be 0.147 µM. Further, the Emax in data set [2] was found to be 105%. In [5], this compound had a clearance of 4.67 mL/min/kg. Also, the half-life in data set [6] was 3.5 h.
Regarding `COc1cc(-c2ccc(COc3cc4c(cn3)CC[C@]43C[C@H]3C(=O)O)cc2[C@H](OC)C(C)(C)C)c(F)cn1`, the figures for the EC50 in data set [12] and in data set [1] were 0.37 µM and 0.25 µM, respectively. Moreover, the Emax came to 122% in data set [13] and 85% in data set [2]. In data set [5], the clearance was 28.3 mL/min/kg. The same compound gave a half-life in data set [6] of 1.2 h.
Take `COc1cc(-c2ccc(COc3cc4c(cn3)CC[C@]43C[C@H]3C(=O)O)cc2[C@@H]2CCCC2(C)C)c(F)cn1`: the EC50 in data set [12] amounted to 0.022 µM; in data set [1], 0.249 µM. Also, the Emax amounted to 97% in data set [13] and 98% in data set [2]. Further, in data set [5], the clearance is 4.33 mL/min/kg. The half-life in data set [6] is 3.6 h. The compound also showed a bioavailability in data set [7] of 58%.
As for `COc1ccc(F)c(-c2ccc(COc3cccc([C@@H](CC(=O)O)C4CC4)c3)cc2[C@H](F)C(C)(C)C)c1`, in data set [1], the EC50 was 0.105 µM. Moreover, in data set [2], the Emax is 100%.
For `CCC[C@H](CC(=O)O)c1cccc(OCc2ccc(-c3cccc(OC)c3)c(C(C)(C)C)c2)c1` the same measures were 0.37 µM and 94%.
For `COc1ccc(F)c(-c2ccc(COc3cccc([C@@H](CC(=O)O)C4CC4)c3)cc2[C@@H]2OCCCC2(C)C)c1`, in [1], the EC50 turned out to be 0.227 µM. The Emax in data set [2] was determined as 96%.
On to `CC[C@H](CC(=O)O)c1ccnc(OCc2ccc(-c3cc(OC)ncc3F)c([C@@H]3CCCC3(C)C)c2)c1`, for which the EC50 stood at 0.006 µM in data set [12] and 0.15 µM in data set [1]. In addition, the Emax worked out at 102% in data set [13] and 99% in data set [2]. The same compound had a clearance in [5] of 2.5 mL/min/kg. Moreover, the half-life in [6] was 8.2 h. In addition, the bioavailability in data set [7] turned out to be 83%.
`CCC[C@H](CC(=O)O)c1cccc(OCc2ccc(-c3cccc(OC)n3)c(C(C)(C)C)c2)c1`: the EC50 in [1] is 3.7 µM. Also, in data set [2], the Emax came out at 61%.
On to `COc1cc(-c2ccc(COc3cc([C@H](C)CC(=O)O)ccn3)cc2[C@@H]2CCCC2(C)C)c(F)cn1`, for which the results for the EC50 in [12] and in data set [1] were 0.019 µM and 0.281 µM, respectively. The Emax in data set [13] amounted to 100%; in data set [2], 136%.
Consider `CCO[C@@H](c1cc(COc2cccc([C@@H](CC(=O)O)C3CC3)c2)ccc1-c1cc(OC)ccc1F)C(C)(C)C`, for which the EC50 in data set [1] was 0.114 µM. For the same compound, the Emax in data set [2] was found to be 101%. The compound also showed a clearance in data set [5] of 5.33 mL/min/kg. This compound also had a half-life in data set [6] of 3.9 h.
Turning to `COc1cc(-c2ccc(COc3ccc4c(c3)[C@@](C)(CC(=O)O)CC4)cc2[C@H](OC)C(C)(C)C)c(F)cn1`, the EC50 was 0.0067 µM in [12] and 0.235 µM in data set [1]. The Emax turned out to be 101% in data set [13] and 106% in data set [2]. For the same compound, the clearance in data set [5] is 4.17 mL/min/kg. The compound also had a half-life in [6] of 4 h. In [7], this compound gave a bioavailability of 21%.
Consider `COc1ccc(F)c(-c2ccc(COc3cccc([C@@H](CC(=O)O)C4CC4)c3)cc2CC(C)(C)C)c1`, for which the EC50 in data set [1] turned out to be 0.088 µM. The Emax in data set [2] came out at 102%. Besides, in data set [5], the clearance was 20 mL/min/kg. Besides, the half-life in [6] is 1.2 h.
Regarding `COc1cc(-c2ccc(COc3cccc([C@@H](CC(=O)O)C4CC4)c3)cc2C2=CCCC2(C)C)c(F)cn1`, the EC50 in data set [1] is 0.12 µM. Moreover, the Emax in [2] stood at 100%.
Regarding `COc1cc(-c2ccc(COc3cc([C@@H](CC(=O)O)C4CC4)ccn3)cc2[C@@H]2CCCC2(C)C)c(F)cn1`, the EC50 was 0.0017 µM in data set [12] and 0.108 µM in data set [1]. Also, the Emax is 100% in data set [13] and 110% in [2]. The same compound had a clearance in data set [5] of 1.43 mL/min/kg. In data set [6], this compound gave a half-life of 9.7 h. Further, the bioavailability in [7] came to 37%.
